Test: Concentration of lactic acid fermentation culture medium with reverse osmosis membrane at 50° C. until calcium lactate precipitates
Settings: no calcium formate added
Procedure: While the recovered concentrate was incubated at 50° C., the concentrate was filtered by suction filtration through Qualitative Filter Paper No. 2 (manufactured by [sequence]) to remove the precipitated calcium lactate crystals.

In the case of `CC(O)C(=O)[O-].CC(O)C(=O)[O-].[Ca+2]` (stereo not drawn) [calcium lactate], the “concentration of calcium lactate at which precipitation was found” value (from here on “concentration of calcium lactate”) (D-lactic acid fermentation medium (SL strain)) is reported as 12.5 % by weight, the “concentration of calcium lactate” value (L-lactic acid fermentation medium (LC strain)) is reported as 12.8 % by weight and the “concentration of calcium lactate” value (L-lactic acid fermentation medium (yeast HI003 strain)) is reported as 12.0 % by weight.

— patent US20140012041A1, “METHOD FOR PRODUCING LACTATE” (TORAY INDUSTRIES, INC., priority 2010, published 2014)
